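Five concentrations, 48 hours, 96-well plates. At the GI50, growth is halved. TGI marks complete inhibition of growth.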
Key:
Experiment in all cases: NCI anticancer screen, dose series, 48 h
SW-620 colon = system: SW-620 colon
OVCAR-8 ovarian = system: OVCAR-8 ovarian
LOX IMVI melanoma = system: LOX IMVI melanoma
SN12C renal = system: SN12C renal
UACC-62 melanoma = system: UACC-62 melanoma
ACHN renal = system: ACHN renal
COLO 205 colon = system: COLO 205 colon
K-562 leukemia = system: K-562 leukemia
HT29 colon = system: HT29 colon
EKVX NSCLC = system: EKVX NSCLC

| SMILES | GI50 (SW-620 colon) [µM] | TGI (SW-620 colon) [µM] | GI50 (OVCAR-8 ovarian) [µM] | TGI (OVCAR-8 ovarian) [µM] | GI50 (LOX IMVI melanoma) [µM] | TGI (LOX IMVI melanoma) [µM] | GI50 (SN12C renal) [µM] | TGI (SN12C renal) [µM] | GI50 (UACC-62 melanoma) [µM] | TGI (UACC-62 melanoma) [µM] | GI50 (ACHN renal) [µM] | TGI (ACHN renal) [µM] | GI50 (COLO 205 colon) [µM] | TGI (COLO 205 colon) [µM] | GI50 (K-562 leukemia) [µM] | TGI (K-562 leukemia) [µM] | GI50 (HT29 colon) [µM] | TGI (HT29 colon) [µM] | TGI (EKVX NSCLC) [µM] | GI50 (EKVX NSCLC) [µM] |
| --- | --- | --- | --- | --- | --- | --- | --- | --- | --- | --- | --- | --- | --- | --- | --- | --- | --- | --- | --- | --- |
| CC1(C)N=C(N)N=C(N)N1c1cccc(OCCOc2cccc([N+](=O)[O-])c2)c1 | 1.93 | > 100 | 38.6 | > 100 | 2.15 | > 100 | 4.04 | > 100 | 2.28 | > 100 | > 100 | > 100 | 2.13 | > 100 | 2.1 | > 100 | 0.583 | > 100 |  |  |
| O=C1C=C(Nc2ccc(S(=O)(=O)Nc3nccs3)cc2)c2ccccc2C1=O |  | 43 |  | 47.6 |  | 48.6 |  | 47.2 |  | 53.5 |  | 63.5 |  |  |  | > 100 |  | 39.3 | > 100 |  |
| Oc1ccc(/C=C/c2cc(O)cc3c2C(c2cc(O)cc(O)c2)C(c2ccc(O)c(O)c2)O3)cc1 (configuration not stated) |  | > 100 |  | 68.2 |  | > 100 |  | > 100 |  | 42.4 |  | 33.8 |  | 45.1 |  |  |  | 47.6 | > 100 |  |
| CSc1ccc2c(cc1=O)[C@@H](NC(=O)c1cc(O)c(O)c(O)c1)CCc1cc(O)c(O)c(O)c1-2 |  | 39.6 |  | 54.2 |  |  |  | 34.5 |  | 36.8 |  | > 100 |  | 75.3 |  | 18.9 |  | 48.7 | 56.7 |  |
| CCCCCCCCCCCCCCCCCCC1=C(O)C(=O)C=C(OC)C1=O |  | > 100 |  | > 100 |  |  |  | > 100 |  | > 100 |  | > 100 |  | > 100 |  |  |  | > 100 | > 100 |  |
| Cc1ccc2c(c1-c1ccccc1)C(=O)OC2 |  | > 100 |  | > 100 |  |  |  | > 100 |  | 92.8 |  | > 100 |  | > 100 |  | > 100 |  | > 100 | 43.4 |  |
| O=C1/C(=C/N2N=C(c3ccc4ccccc4c3)CC2c2ccccc2O)SC(=S)N1c1cccnc1 (configuration not stated) | 0.365 | > 100 | 2.36 | > 100 | 1.24 | > 100 | 2.22 | > 100 | 4.06 | > 100 | 1.65 | > 100 | 1.88 | > 100 | 0.341 | > 100 | 3.05 | > 100 |  |  |
| O=C(Nc1ccc(Cl)cc1)Nc1nccs1 | 0.4 | > 100 | 3.39 | > 100 | 0.786 | > 100 | 5.22 | > 100 | 0.756 | 57.9 | 2.25 | 43 | 0.75 | 6.13 | 0.5 | > 100 | 0.511 | 27.1 |  |  |
| COc1ccc(-c2cc(-c3ccc(Nc4ccnc5cc(Cl)ccc45)cc3)nc(N3CCOCC3)n2)cc1 |  |  | 4.43 | > 100 |  |  |  |  |  |  |  |  | 3.14 | > 100 | 6.18 | > 100 | 3.28 | > 100 | > 100 | > 100 |
| N#Cc1c(-c2ccco2)cc(-c2ccc(N)cc2)[nH]c1=O |  | > 100 |  | > 100 |  | > 100 |  | > 100 |  | > 100 |  | > 100 |  |  |  | > 100 |  | > 100 | > 100 |  |

From PubChem BioAssay (NCI)
